Source: patent publication US20120172379A1, “4 SUBSTITUTED PYRAZOLOPYRIMIDINES” (VERTEX PHARMACEUTICALS INCORPORATED, priority 2009, published 2012)

Columns and labels:
Assay type in all cases: biochemical
[1] = target: PKC theta kinase (Homo sapiens, UniProt Q04759); test: PKC Theta coupled-enzyme kinase assay (NADH consumption, absorbance at 340 nm); details: 18 nM PKC theta kinase, 240 μM ATP, 100 μM substrate peptide, 30° C.
Procedure: An assay buffer solution was prepared which consisted of 100 mM HEPES (pH 7.5), 10 mM MgCl2, 25 mM NaCl, 0.1 mM EDTA and 0.01% Brij. An enzyme buffer containing reagents to final assay concentrations of 0.00001% Triton X-100, 200 μg/mL Phosphatidylserine, 20 μg/mL Diacylglycerol, 360 μM NADH, 3 mM phosphoenolpyruvate, 70 μg/mL pyruvate kinase, 24 μg/mL lactate dehydrogenase, 2 mM DTT, 100 μM substrate peptide (ERMRPRKRQGSVRRRV SEQ ID NO. 1) and 18 nM PKC theta kinase was prepared in assay buffer. To 60 μL of this enzyme buffer, in a 384 well plate, was added 2 μL of VRT stock solution in DMSO. The mixture was allowed to equilibrate for 10 mins at 30° C. The enzyme reaction was initiated by the addition of 5 μL stock ATP solution prepared in assay buffer to a final assay concentration of 240 μM. Initial rate data was determined from the rate of change of absorbance at 340 nm (corresponding to stoichiometric consumption of NADH) using a Molecular Devices Spectramax plate reader (Sunnyvale, Calif.) over 15 mins at 30° C. For each Ki determination 12 data points covering the VRT concentration range of 0-20 μM were obtained in duplicate (DMSO stocks were prepared from an initial 10 mM VRT stock with subsequent 1:2 serial dilutions). Ki values were calculated from initial rate data by non-linear regression using the Prism software package (Prism 4.0a, Graphpad Software, San Diego, Calif.). […] 1.25 D>2.8 μM.

[2] = target: PKC alpha kinase (Homo sapiens, UniProt P17252); test: PKC Alpha coupled-enzyme kinase assay (NADH consumption, absorbance at 340 nm); details: 4.5 nM PKC alpha kinase, 130 μM ATP, 150 μM substrate peptide, 100 μM CaCl2, 30° C.
Procedure: An assay buffer solution was prepared which consisted of 100 mM HEPES (pH 7.5), 10 mM MgCl2, 25 mM NaCl, 0.1 mM EDTA, 100 μM CaCl2 and 0.01% Brij. An enzyme buffer containing reagents to final assay concentrations of 0.002% Triton X-100, 100 μg/mL Phosphatidylserine, 20 μg/mL Diacylglycerol, 360 μM NADH, 3 mM phosphoenolpyruvate, 70 μg/mL pyruvate kinase, 24 μg/mL lactate dehydrogenase, 2 mM DTT, 150 μM substrate peptide (RRRRRKGSFKRKA SEQ ID NO. 3) and 4.5 nM PKC alpha kinase was prepared in assay buffer. To 16 μL of this enzyme buffer, in a 384 well plate, was added 1 μL of VRT stock solution in DMSO. The mixture was allowed to equilibrate for 10 mins at 30° C. The enzyme reaction was initiated by the addition of 16 μL stock ATP solution prepared in assay buffer to a final assay concentration of 130 μM. Initial rate data was determined from the rate of change of absorbance at 340 nm (corresponding to stoichiometric consumption of NADH) using a Molecular Devices Spectramax plate reader (Sunnyvale, Calif.) over 15 mins at 30° C. For each Ki determination 12 data points covering the VRT concentration range of 0-20 μM were obtained in duplicate (DMSO stocks were prepared from an initial 10 mM VRT stock with subsequent 1:2 serial dilutions). Ki values were calculated from initial rate data by non-linear regression using the Prism software package (Prism 4.0a, Graphpad Software, San Diego, Calif.).

[3] = target: PKC delta kinase (Homo sapiens, UniProt Q05655); test: PKC Delta coupled-enzyme kinase assay (NADH consumption, absorbance at 340 nm); details: 46 nM PKC delta kinase, ATP final assay concentration of 150, 150 μM substrate peptide, 30° C.
PKC delta kinase, sequence (Q05655 whole entry): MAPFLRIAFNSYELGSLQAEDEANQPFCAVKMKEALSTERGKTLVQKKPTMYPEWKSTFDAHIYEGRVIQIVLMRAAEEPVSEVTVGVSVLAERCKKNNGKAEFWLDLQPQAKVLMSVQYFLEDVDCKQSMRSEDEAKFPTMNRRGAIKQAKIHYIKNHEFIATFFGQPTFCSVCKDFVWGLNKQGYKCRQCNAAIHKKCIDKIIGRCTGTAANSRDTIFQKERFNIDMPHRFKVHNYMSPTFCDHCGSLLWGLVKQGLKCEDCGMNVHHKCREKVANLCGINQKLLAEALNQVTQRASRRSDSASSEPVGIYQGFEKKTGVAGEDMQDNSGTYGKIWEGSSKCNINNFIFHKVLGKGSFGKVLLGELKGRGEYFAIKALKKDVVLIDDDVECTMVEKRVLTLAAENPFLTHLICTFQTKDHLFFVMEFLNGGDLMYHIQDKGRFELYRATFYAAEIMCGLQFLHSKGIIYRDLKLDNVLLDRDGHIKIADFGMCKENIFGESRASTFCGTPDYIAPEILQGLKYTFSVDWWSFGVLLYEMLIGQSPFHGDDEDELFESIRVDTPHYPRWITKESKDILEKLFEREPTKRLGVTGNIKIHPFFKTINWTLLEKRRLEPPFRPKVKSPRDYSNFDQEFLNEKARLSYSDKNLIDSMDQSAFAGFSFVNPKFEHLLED
Procedure: An assay buffer solution was prepared which consisted of 100 mM HEPES (pH 7.5), 10 mM MgCl2, 25 mM NaCl, 0.1 mM EDTA and 0.01% Brij. An enzyme buffer containing reagents to final assay concentrations of 0.002% Triton X-100, 200 μg/mL Phosphatidylserine, 20 μg/mL Diacylglycerol; 360 μM NADH, 3 mM phosphoenolpyruvate, 70 μg/mL pyruvate kinase, 24 μg/mL lactate dehydrogenase, 2 mM DTT, 150 μM substrate peptide (ERMRPRKRQGSVRRRV SEQ ID NO. 2) and 46 nM PKC delta kinase was prepared in assay buffer. To 16 μL of this enzyme buffer, in a 384 well plate, was added 1 μL of VRT stock solution in DMSO. The mixture was allowed to equilibrate for 10 mins at 30° C. The enzyme reaction was initiated by the addition of 16 μL stock ATP solution prepared in assay buffer to a final assay concentration of 150 Initial rate data was determined from the rate of change of absorbance at 340 nm (corresponding to stoichiometric consumption of NADH) using a Molecular Devices Spectramax plate reader (Sunnyvale, Calif.) over 15 mins at 30° C. For each Ki determination 12 data points covering the VRT concentration range of 0-20 μM were obtained in duplicate (DMSO stocks were prepared from an initial 10 mM VRT stock with subsequent 1:2 serial dilutions). Ki values were calculated from initial rate data by non-linear regression using the Prism software package (Prism 4.0a, Graphpad Software, San Diego, Calif.).

PKC theta kinase, sequence (Q04759 whole entry): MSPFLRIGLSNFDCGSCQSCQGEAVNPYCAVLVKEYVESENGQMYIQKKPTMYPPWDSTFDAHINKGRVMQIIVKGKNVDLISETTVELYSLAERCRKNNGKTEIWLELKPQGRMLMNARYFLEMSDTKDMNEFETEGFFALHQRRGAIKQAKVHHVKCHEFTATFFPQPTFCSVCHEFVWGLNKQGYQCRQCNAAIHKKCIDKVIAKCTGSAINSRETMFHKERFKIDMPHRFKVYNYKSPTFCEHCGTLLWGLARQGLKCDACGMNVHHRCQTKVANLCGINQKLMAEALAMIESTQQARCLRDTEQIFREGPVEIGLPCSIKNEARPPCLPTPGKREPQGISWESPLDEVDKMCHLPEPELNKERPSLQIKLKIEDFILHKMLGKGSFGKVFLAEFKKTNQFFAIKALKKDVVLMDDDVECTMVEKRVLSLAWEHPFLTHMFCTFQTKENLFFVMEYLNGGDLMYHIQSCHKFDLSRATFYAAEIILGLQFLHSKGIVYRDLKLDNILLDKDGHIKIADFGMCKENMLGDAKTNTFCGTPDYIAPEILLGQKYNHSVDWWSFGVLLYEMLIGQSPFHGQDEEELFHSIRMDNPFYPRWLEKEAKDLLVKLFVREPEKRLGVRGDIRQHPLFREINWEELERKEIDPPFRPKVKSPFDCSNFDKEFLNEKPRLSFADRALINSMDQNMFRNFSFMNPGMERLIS

CCc1n[nH]c2ncnc(-c3cc(F)cc(C4(CN)CCC4)c3)c12 [Compound 8, (1-(3-(3-ethyl-1H-pyrazolo[3,4-d]pyrimidin-4-yl)-5-fluorophenyl)cyclobutyl)methanamine]
Ki [1]: < 50 nM
Ki [2]: 50 to 500 nM
Ki [3]: 50 to 500 nM

Cc1n[nH]c2ncnc(-c3cccc(C4(C#N)CC4)c3)c12 [Compound 4]
Ki [1]: < 50 nM
Ki [2]: > 1250 nM
Ki [3]: > 1250 nM

Cc1n[nH]c2ncnc(-c3cccc(C4(CN)CC4)c3)c12 [Compound 6]
Ki [1]: 50 to 500 nM
Ki [2]: > 1250 nM
Ki [3]: 500 to 2800 nM

CCc1n[nH]c2ncnc(-c3cccc(C4(C#N)CC4)c3)c12 [Compound 2]
Ki [1]: < 50 nM
Ki [2]: > 1250 nM

NC(=O)C1(c2cccc(-c3ncnc4[nH]nc(C(F)(F)F)c34)c2)CC1 [Compound 7, 1-(3-(3-(trifluoromethyl)-1H-pyrazolo[3,4-d]pyrimidin-4-yl)phenyl)cyclopropanecarboxamide]
Ki [1]: > 700 nM
Ki [2]: > 1250 nM
Ki [3]: > 1250 nM

N#CC1(c2cccc(-c3ncnc4[nH]nc(C5CC5)c34)c2)CC1 [Compound 1, 1-(3-(3-cyclopropyl-1H-pyrazolo[3,4-d]pyrimidin-4-yl)phenyl)cyclopropanecarbonitrile]
Ki [1]: 50 to 500 nM
Ki [2]: > 1250 nM
Ki [3]: > 1250 nM

CCc1n[nH]c2ncnc(-c3cccc(C4(CN)CC4)c3)c12 [Compound 5, (1-(3-(3-ethyl-1H-pyrazolo[3,4-d]pyrimidin-4-yl)phenyl)cyclopropyl)methanamine]
Ki [1]: < 50 nM
Ki [2]: 500 to 2800 nM
Ki [3]: 50 to 500 nM

N#CC1(c2cccc(-c3ncnc4[nH]ncc34)c2)CC1 [Compound 3, 1-(3-(1H-pyrazolo[3,4-d]pyrimidin-4-yl)phenyl)cyclopropane carbonitrile]
Ki [1]: < 50 nM
Ki [2]: > 1250 nM
Ki [3]: 500 to 2800 nM
